Values after ≈ are worked out from the molar mass of the structure shown.
Columns and labels:
[1] = system: ocular pressure in rabbit; assay: decrease in ocular pressure in rabbit, transient ocular hypertension model (5% glucose infusion), topical instillation; format: in vivo; set-up: endoocular pressure, 10' OS / endoocular pressure, 20' OC / endoocular pressure, 40' OS: unit not given beside the values; conditions: for endoocular pressure, 10' OS / endoocular pressure, 20' OS / endoocular pressure, 40' OS: left eye (diluent-treated fellow eye, control); for endoocular pressure, 10' OS / endoocular pressure, 10' OD: 10 minutes; for endoocular pressure, 20' OS / endoocular pressure, 20' OC: 20 minutes; for endoocular pressure, 40' OS / endoocular pressure, 40' OD: 40 minutes; for endoocular pressure, 10' OD / endoocular pressure, 20' OC / endoocular pressure, 40' OD: right eye (drug-treated, 2 drops of 2% solution)
Description: In vivo experiments were carried out on the compounds of the present invention, and, amongst the others, those experiments whose results are reported in the following Table 2, concerning the decrease in the ocular pressure in rabbit.
For determining such results a transient ocular hypertension model was employed, said hypertension being obtained in rabbit through rapid venous infusion of suitable volumes (20 ml/kg) of 5% glucose solution.
Albino rabbits from the same farm in New Zealand were employed, whose weights were between 2,500 e 3,000 g. Each treatment was carried out on a group of six animals.
The drug was prepared in a phosphate buffer water solution at pH 7.5. The solution was made isotonic with sodium chloride and the possibility of microbial contamination was prevented through the addition of benzalkonium chloride. In case of compounds of low solubility, a dispersing suspension of the finely divided compound in methyl cellulose was prepared. The solution (or the suspension) was instilled into the right eye of each animal in the amount of 2 drops of 2% solution, at an interval of 2 minutes from one another. The left eye was treated with an equal volume of diluent.
The measurements of pressure were performed while animals were in superficial local anaesthesia (0.4% benoxinate), by means of a McKay-Marg electronic pressure gage, at the times -30', 0', 10', 20', 40'.
The following table reports the endoocular pressure measured after 10, 20, and 40 minutes both in the right and in the left eye: the higher the difference in the ocular pressure between the treated eye and the untreated eye, the higher the efficiency of the drug considered.

[2] = solubility in buffer pH 7.6; format: physicochemical; conditions: aqueous buffer
carbonic anhydrase = assay: in vitro inhibition of carbonic anhydrase (enzymic activity), CO2-electrode potentiometric analysis; format: biochemical; conditions: samples at 10^-7, 3×10^-7, 6×10^-7 and 10^-6 molar; read-out: I50 (molar concentration that gives a 50% reduction of enzymic activity)
Source text: For determining the in vitro activities, samples were employed at molar concentrations of 10^-7, 3×10^-7, 6×10^-7, and 10^-6, and the results given in Table 1 were obtained by CO2 -electrode potentiometric analysis.

[3] = stability of the product (hydrolysis), observed on preparation; format: physicochemical; conditions: residue after reaction with liquid ammonia
[4] = in words; cited from earlier work
[5] = in words; cited from earlier work; remark: listed apart in the source

| Structure (SMILES) | endoocular pressure, 10' OS [1] | endoocular pressure, 20' OS [1] | endoocular pressure, 40' OS [1] | endoocular pressure, 10' OD [1] | endoocular pressure, 20' OC [1] | endoocular pressure, 40' OD [1] | solubility [2] | IC50 (carbonic anhydrase) | stability [3] | absorption when instilled in the eye [4] | water solubility [5] |
| --- | --- | --- | --- | --- | --- | --- | --- | --- | --- | --- | --- |
| COC(=O)CCC(=O)Nc1nnc(S(N)(=O)=O)s1 [RENDE 023, 5-methylsuccinoylamino-2-sulfonamido-1,3,4-thiadiazole] | 25.5 | 20.17 | 16.67 | 25.33 | 19.5 | 16.5 | 740 µg/mL (≈ 2.51 mM) | 0.55 µM | – | – | – |
| CCCCCOC(=O)CCC(=O)Nc1nnc(S(N)(=O)=O)s1 [RENDE 032, 5-Pentylsuccinoylamino-2-sulfonamido-1,3,4-thiadiazole] | 24.5 | 21.33 | 18.83 | 22.67 | 20.0 | 17.83 | 470 µg/mL (≈ 1.34 mM) | 0.39 µM | – | – | – |
| CCOC(=O)CCC(=O)Nc1nnc(S(N)(=O)=O)s1 [RENDE 029, 5-Ethylsuccinoylamino-2-sulfonamido-1,3,4-thiadiazole] | 25.67 | 20.67 | 17.67 | 20.33 | 17.33 | 15.67 | 2760 µg/mL (≈ 8.95 mM) | – | – | – | – |
| NCCCCC(=O)Nc1nnc(S(N)(=O)=O)s1 [RENDE 027, 5-(5-Aminovaleroylamino)-2-sulfonamido-1,3,4-thiadiazole] | 26.17 | 21.5 | 17.33 | 24.0 | 20.83 | 16.83 | 208 µg/mL (≈ 0.745 mM) | 0.44 µM | – | – | – |
| CCCCCOC(=O)CCC(=O)N=c1sc(S(N)(=O)=O)nn1C [RENDE 035, 5-Pentylsuccinoylamino-4-methyl-2-sulfonamido-1,3,4-thiadiazole] | 25.17 | 22.0 | 18.0 | 24 | 20.67 | 17.83 | 535 µg/mL (≈ 1.47 mM) | 0.307 µM | – | – | – |
| COC(=O)CCC(=O)N=c1sc(S(N)(=O)=O)nn1C [RENDE 024, 5-Methylsuccinoylamino-4-methyl-2-sulfonamido-1,3,4-thiadiazole] | 25.83 | 21.5 | 17.83 | 24.67 | 20.33 | 17.33 | 2250 µg/mL (≈ 7.3 mM) | 0.45 µM | – | – | – |
| NS(=O)(=O)c1nnc(NC(=O)CCC(=O)OCC(F)(F)F)s1 [Rende 039, 5-Trifluoroethylsuccinoylamino-2-sulfonamido-1,3,4-thiadiazole] | – | – | – | – | – | – | – | – | very unstable and becomes very easily hydrolysed | – | – |
| NS(=O)(=O)c1nnc(NC(=O)CCC(=O)O)s1 [RENDE 037, 5-succinoylamino-2-sulfonamido-1,3,4-thiadiazolic acid] | 26.0 | 21.67 | 19.0 | 19.33 | 17.17 | 15.67 | 28700 µg/mL (≈ 102 mM) | – | – | – | – |
| CC(=O)Nc1nnc(S(N)(=O)=O)s1 [ACETAZOLAMIDE, 5-acetamido-2-sulfonamido-1,3,4-thiadiazole] | – | – | – | – | – | – | – | – | – | poor absorption | practically insoluble |
| CC(C)COC(=O)CCC(=O)Nc1nnc(S(N)(=O)=O)s1 [RENDE 034, 5-Isobutylsuccinoylamino-2-sulfonamido-1,3,4-thiadiazole] | 25.67 | 21.17 | 17.17 | 21.5 | 19.0 | 16.67 | 1240 µg/mL (≈ 3.69 mM) | 0.37 µM | – | – | – |
